{"source": "paper PMC9500072", "about": "“Topical application of an irreversible small molecule inhibitor of lysyl oxidases ameliorates skin scarring and fibrosis” (Nature Communications, 2022)", "key": {"[1]": {"target": "Platelet Activating Factor (PAF) (Homo sapiens, UniProt P25105)", "sequence (P25105 whole entry)": "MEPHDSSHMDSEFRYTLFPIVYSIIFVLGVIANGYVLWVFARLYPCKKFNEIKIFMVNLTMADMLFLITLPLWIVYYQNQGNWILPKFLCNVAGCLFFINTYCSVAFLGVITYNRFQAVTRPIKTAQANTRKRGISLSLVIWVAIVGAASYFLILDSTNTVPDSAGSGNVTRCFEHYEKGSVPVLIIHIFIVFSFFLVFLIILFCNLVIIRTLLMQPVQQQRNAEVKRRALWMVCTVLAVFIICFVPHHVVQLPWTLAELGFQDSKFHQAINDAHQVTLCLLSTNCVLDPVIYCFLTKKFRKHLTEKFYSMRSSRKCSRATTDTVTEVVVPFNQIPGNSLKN", "test": "Eurofins panel 265010", "assay_type": "binding"}, "Nicotinic Acetylcholine": {"system": "Nicotinic Acetylcholine", "test": "Eurofins panel 258590", "assay_type": "binding, human", "settings": "10 µM"}, "fibroblasts": {"system": "fibroblasts", "test": "RNASeq transcriptome analysis, fibroblasts", "assay_type": "cell-based, human", "settings": "24 hrs of treatment"}, "keratinocytes": {"system": "keratinocytes", "test": "RNASeq transcriptome analysis, keratinocytes", "assay_type": "cell-based, human", "settings": "24 hrs of treatment"}, "LOX": {"system": "LOX", "test": "Substrate (putrescine) competition", "assay_type": "biochemical", "set-up": "Fig. 2D activity: scale not given here", "source_text": "PXS-4787 competes with a model substrate (putrescine) for the LOX binding site (Fig. 2d). The allylamine of PXS-4787 interacts with the co-factor of the enzyme and elicits mechanism-based inhibition (Fig. 2e). Through careful optimization, and in contrast to BAPN, PXS-4787 selectivity targets lysyl oxidases and is neither an inhibitor of, nor a substrate for, related oxidases (Fig. 2f, g and Supplementary Table S1). Furthermore, PXS-4787 was clean when profiled in a broad panel of macromolecular targets using enzyme and radioligand binding assays (LeadProfilingScreen, Eurofins CEREP Panlabs, 68 assays, test concentration 10 µM; Supplementary Data S1).\nData are expressed as mean ± SEM. Subsequent statistical analysis was performed with unpaired two-sided Student’s t tests. *p < 0.05, **p < 0.01, ***p < 0.001and ****p < 0.0001. Source data are provided as a Source Data file.\nThe measurement of the enzymatic activity of all lysyl oxidase family members was based on the detection of hydrogen peroxide with an Amplex-Red oxidation assay, as previously described; miniaturized in 384 well formats, with the appropriate combination of substrate and assay buffer for each individual enzyme. After a 30 min pre-incubation of the enzyme at 37 °C with the test compound (or with different incubation times for the time-dependency assay), one volume of reaction mixture containing 120 μM Amplex Red (AR) (Life Technologies), 1.5 U/mL horseradish peroxidase (HRP) (Sigma-Aldrich) and the specific substrate was added to each sample. The relative fluorescence units (RFU) were then measured every 2.5 min for 30 min at 37 °C, excitation 565 nm and emission 590, on a BMG Clariostar Microplate Reader. All the substrates were used at concentrations corresponding to their Km towards the corresponding enzyme, or with a range of different concentrations for the substrate competition experiments."}, "hERG potassium channel": {"target": "hERG potassium channel (Homo sapiens, UniProt Q12809)", "sequence (Q12809 whole entry)": "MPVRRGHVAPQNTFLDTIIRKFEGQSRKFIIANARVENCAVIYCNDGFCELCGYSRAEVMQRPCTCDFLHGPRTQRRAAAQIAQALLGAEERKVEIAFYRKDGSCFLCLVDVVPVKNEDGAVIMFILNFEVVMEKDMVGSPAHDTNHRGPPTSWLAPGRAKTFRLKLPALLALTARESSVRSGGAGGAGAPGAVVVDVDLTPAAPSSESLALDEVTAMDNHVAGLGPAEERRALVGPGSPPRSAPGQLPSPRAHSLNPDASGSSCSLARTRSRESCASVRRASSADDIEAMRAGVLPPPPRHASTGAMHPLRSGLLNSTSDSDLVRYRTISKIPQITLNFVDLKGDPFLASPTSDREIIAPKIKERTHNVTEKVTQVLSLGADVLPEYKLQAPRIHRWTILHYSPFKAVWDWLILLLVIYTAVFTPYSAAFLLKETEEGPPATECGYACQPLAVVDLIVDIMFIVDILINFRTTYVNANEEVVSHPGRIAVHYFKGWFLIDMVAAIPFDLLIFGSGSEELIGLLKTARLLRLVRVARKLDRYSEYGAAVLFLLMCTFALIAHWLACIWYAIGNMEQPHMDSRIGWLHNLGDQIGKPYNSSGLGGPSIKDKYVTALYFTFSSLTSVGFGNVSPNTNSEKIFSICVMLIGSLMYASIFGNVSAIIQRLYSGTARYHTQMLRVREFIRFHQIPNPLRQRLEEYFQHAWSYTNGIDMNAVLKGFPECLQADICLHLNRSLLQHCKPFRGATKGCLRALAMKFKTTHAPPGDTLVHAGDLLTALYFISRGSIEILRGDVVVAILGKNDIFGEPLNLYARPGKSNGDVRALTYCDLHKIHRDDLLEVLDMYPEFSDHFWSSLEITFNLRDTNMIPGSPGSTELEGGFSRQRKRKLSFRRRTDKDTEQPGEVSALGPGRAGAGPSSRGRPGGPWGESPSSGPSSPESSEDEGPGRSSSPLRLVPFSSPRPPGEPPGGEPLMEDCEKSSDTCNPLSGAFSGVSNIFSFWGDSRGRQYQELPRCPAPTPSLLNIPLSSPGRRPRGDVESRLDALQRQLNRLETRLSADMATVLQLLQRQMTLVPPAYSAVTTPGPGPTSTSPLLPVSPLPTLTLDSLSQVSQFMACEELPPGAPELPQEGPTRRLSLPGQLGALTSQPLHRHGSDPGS", "test": "Eurofins panel 265910", "assay_type": "binding", "settings": "probe [3H]Dofetilide"}, "Cyclooxygenase COX-1": {"target": "Cyclooxygenase COX-1 (Homo sapiens, UniProt P23219)", "sequence (P23219 24-599)": "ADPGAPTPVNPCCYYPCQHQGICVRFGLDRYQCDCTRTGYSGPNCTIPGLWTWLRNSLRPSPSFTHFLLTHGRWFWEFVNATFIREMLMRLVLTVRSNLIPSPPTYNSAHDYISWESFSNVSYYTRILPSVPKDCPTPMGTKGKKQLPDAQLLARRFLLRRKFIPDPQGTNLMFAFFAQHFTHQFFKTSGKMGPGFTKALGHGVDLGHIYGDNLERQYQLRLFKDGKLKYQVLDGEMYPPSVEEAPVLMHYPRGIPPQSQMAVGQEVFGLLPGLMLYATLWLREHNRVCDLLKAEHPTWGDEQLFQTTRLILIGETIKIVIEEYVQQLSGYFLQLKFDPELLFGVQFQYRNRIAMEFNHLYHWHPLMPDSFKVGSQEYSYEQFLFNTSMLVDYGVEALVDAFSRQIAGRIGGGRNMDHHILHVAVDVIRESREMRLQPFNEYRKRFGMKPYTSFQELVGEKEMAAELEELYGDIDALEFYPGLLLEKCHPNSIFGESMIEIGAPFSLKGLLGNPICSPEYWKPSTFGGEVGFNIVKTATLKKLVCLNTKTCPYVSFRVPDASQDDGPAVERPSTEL", "test": "Eurofins panel 116020", "assay_type": "biochemical"}, "Phosphodiesterase PDE3A": {"target": "Phosphodiesterase PDE3A (Homo sapiens, UniProt Q14432)", "sequence (Q14432 whole entry)": "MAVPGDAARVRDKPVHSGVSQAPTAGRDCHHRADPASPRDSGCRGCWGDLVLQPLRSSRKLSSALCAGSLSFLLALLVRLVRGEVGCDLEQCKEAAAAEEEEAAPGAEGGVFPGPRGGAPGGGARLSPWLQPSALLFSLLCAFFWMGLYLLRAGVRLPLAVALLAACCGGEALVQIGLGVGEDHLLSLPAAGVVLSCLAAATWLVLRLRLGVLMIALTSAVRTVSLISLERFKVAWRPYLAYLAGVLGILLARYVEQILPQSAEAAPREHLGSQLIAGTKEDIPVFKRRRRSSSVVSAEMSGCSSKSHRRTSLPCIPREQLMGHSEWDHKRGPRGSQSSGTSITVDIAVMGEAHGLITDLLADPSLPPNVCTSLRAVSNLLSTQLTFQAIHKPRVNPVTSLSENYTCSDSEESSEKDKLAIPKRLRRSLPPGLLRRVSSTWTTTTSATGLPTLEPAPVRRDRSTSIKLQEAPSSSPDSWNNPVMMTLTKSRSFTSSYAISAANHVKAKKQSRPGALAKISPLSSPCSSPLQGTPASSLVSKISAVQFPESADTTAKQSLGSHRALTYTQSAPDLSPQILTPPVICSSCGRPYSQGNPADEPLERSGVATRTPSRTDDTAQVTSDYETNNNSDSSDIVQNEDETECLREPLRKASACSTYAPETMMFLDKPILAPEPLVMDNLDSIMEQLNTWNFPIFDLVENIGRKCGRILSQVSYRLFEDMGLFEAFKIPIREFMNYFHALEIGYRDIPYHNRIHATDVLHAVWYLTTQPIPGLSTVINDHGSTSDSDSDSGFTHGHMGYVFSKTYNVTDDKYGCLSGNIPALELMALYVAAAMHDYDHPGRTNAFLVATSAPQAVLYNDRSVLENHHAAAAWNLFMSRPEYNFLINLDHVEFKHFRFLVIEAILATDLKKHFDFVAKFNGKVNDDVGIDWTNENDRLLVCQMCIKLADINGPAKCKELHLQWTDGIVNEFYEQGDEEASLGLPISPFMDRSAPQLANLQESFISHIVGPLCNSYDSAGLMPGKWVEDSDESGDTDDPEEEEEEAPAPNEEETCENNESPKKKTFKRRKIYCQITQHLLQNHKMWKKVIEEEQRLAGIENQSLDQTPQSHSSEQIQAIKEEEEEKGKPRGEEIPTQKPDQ", "test": "Eurofins panel 152300", "assay_type": "biochemical"}}}
{"smiles": "NC/C=C(\\F)CS(=O)(=O)c1ccccc1", "note": "[PXS-4787]", "values": [{"measurement": "inhibition at 10 µM", "setting": "[1]", "result": -11, "unit": "%"}, {"measurement": "% Inh.", "setting": "Nicotinic Acetylcholine", "result": 1, "unit": "%"}, {"measurement": "Log2 fold change ACTA2-AS1", "setting": "fibroblasts", "result": -3.268}, {"measurement": "Log2 fold change GAL", "setting": "fibroblasts", "result": 2.787}, {"measurement": "Log2 fold change ICOSLG", "setting": "fibroblasts", "result": 1.738}, {"measurement": "Log2 fold change TMEM88", "setting": "fibroblasts", "result": 2.374}, {"measurement": "Log2 fold change LOC101927136", "setting": "keratinocytes", "result": 3.918}, {"measurement": "Log2 fold change TMOD1", "setting": "keratinocytes", "result": 4.799}, {"measurement": "competition with model substrate putrescine for the LOX binding site", "setting": "LOX", "result": "competes"}, {"measurement": "Fig. 2D activity", "setting": "LOX; 5.65e-10, putrescine 1.1 mM", "result": 89.58}, {"measurement": "Fig. 2D activity", "setting": "LOX; 5.65e-10, putrescine 3.3 mM", "result": 93.22}, {"measurement": "Fig. 2D activity", "setting": "LOX; 5.65e-10, putrescine 10 mM", "result": 98.29}, {"measurement": "Fig. 2D activity", "setting": "LOX; 5.65e-10, putrescine 30 mM", "result": 96.57}, {"measurement": "Fig. 2D activity", "setting": "LOX; 5.65e-10, putrescine 90 mM", "result": 93.38}, {"measurement": "Fig. 2D activity", "setting": "LOX; 1.69e-9, putrescine 1.1 mM", "result": 84.4}, {"measurement": "Fig. 2D activity", "setting": "LOX; 1.69e-9, putrescine 3.3 mM", "result": 94.23}, {"measurement": "Fig. 2D activity", "setting": "LOX; 1.69e-9, putrescine 10 mM", "result": 94.63}, {"measurement": "Fig. 2D activity", "setting": "LOX; 1.69e-9, putrescine 30 mM", "result": 93.67}, {"measurement": "Fig. 2D activity", "setting": "LOX; 1.69e-9, putrescine 90 mM", "result": 92.69}, {"measurement": "Fig. 2D activity", "setting": "LOX; 5.08e-9, putrescine 1.1 mM", "result": 89.54}, {"measurement": "Fig. 2D activity", "setting": "LOX; 5.08e-9, putrescine 3.3 mM", "result": 93.84}, {"measurement": "Fig. 2D activity", "setting": "LOX; 5.08e-9, putrescine 10 mM", "result": 97.41}, {"measurement": "Fig. 2D activity", "setting": "LOX; 5.08e-9, putrescine 30 mM", "result": 96.12}, {"measurement": "Fig. 2D activity", "setting": "LOX; 5.08e-9, putrescine 90 mM", "result": 91.41}, {"measurement": "Fig. 2D activity", "setting": "LOX; 1.52e-8, putrescine 1.1 mM", "result": 91.17}, {"measurement": "Fig. 2D activity", "setting": "LOX; 1.52e-8, putrescine 3.3 mM", "result": 95.49}, {"measurement": "Fig. 2D activity", "setting": "LOX; 1.52e-8, putrescine 10 mM", "result": 93.57}, {"measurement": "Fig. 2D activity", "setting": "LOX; 1.52e-8, putrescine 30 mM", "result": 97.83}, {"measurement": "Fig. 2D activity", "setting": "LOX; 1.52e-8, putrescine 90 mM", "result": 92.34}, {"measurement": "Fig. 2D activity", "setting": "LOX; 4.57e-8, putrescine 1.1 mM", "result": 81.95}, {"measurement": "Fig. 2D activity", "setting": "LOX; 4.57e-8, putrescine 3.3 mM", "result": 93.97}, {"measurement": "Fig. 2D activity", "setting": "LOX; 4.57e-8, putrescine 10 mM", "result": 95.69}, {"measurement": "Fig. 2D activity", "setting": "LOX; 4.57e-8, putrescine 30 mM", "result": 96.71}, {"measurement": "Fig. 2D activity", "setting": "LOX; 4.57e-8, putrescine 90 mM", "result": 93.31}, {"measurement": "Fig. 2D activity", "setting": "LOX; 1.37e-7, putrescine 1.1 mM", "result": 73.72}, {"measurement": "Fig. 2D activity", "setting": "LOX; 1.37e-7, putrescine 3.3 mM", "result": 89.33}, {"measurement": "Fig. 2D activity", "setting": "LOX; 1.37e-7, putrescine 10 mM", "result": 93.77}, {"measurement": "Fig. 2D activity", "setting": "LOX; 1.37e-7, putrescine 30 mM", "result": 94.81}, {"measurement": "Fig. 2D activity", "setting": "LOX; 1.37e-7, putrescine 90 mM", "result": 93.26}, {"measurement": "Fig. 2D activity", "setting": "LOX; 4.12e-7, putrescine 1.1 mM", "result": 60.93}, {"measurement": "Fig. 2D activity", "setting": "LOX; 4.12e-7, putrescine 3.3 mM", "result": 75.9}, {"measurement": "Fig. 2D activity", "setting": "LOX; 4.12e-7, putrescine 10 mM", "result": 89.23}, {"measurement": "Fig. 2D activity", "setting": "LOX; 4.12e-7, putrescine 30 mM", "result": 89.28}, {"measurement": "Fig. 2D activity", "setting": "LOX; 4.12e-7, putrescine 90 mM", "result": 90.74}, {"measurement": "Fig. 2D activity", "setting": "LOX; 1.23e-6, putrescine 1.1 mM", "result": 32.69}, {"measurement": "Fig. 2D activity", "setting": "LOX; 1.23e-6, putrescine 3.3 mM", "result": 47.9}, {"measurement": "Fig. 2D activity", "setting": "LOX; 1.23e-6, putrescine 10 mM", "result": 67.1}, {"measurement": "Fig. 2D activity", "setting": "LOX; 1.23e-6, putrescine 30 mM", "result": 81.21}, {"measurement": "Fig. 2D activity", "setting": "LOX; 1.23e-6, putrescine 90 mM", "result": 86.37}, {"measurement": "Fig. 2D activity", "setting": "LOX; 3.7e-6, putrescine 1.1 mM", "result": 11.17}, {"measurement": "Fig. 2D activity", "setting": "LOX; 3.7e-6, putrescine 3.3 mM", "result": 19.92}, {"measurement": "Fig. 2D activity", "setting": "LOX; 3.7e-6, putrescine 10 mM", "result": 38.7}, {"measurement": "Fig. 2D activity", "setting": "LOX; 3.7e-6, putrescine 30 mM", "result": 60.57}, {"measurement": "Fig. 2D activity", "setting": "LOX; 3.7e-6, putrescine 90 mM", "result": 76.61}, {"measurement": "Fig. 2D activity", "setting": "LOX; 1.11e-5, putrescine 1.1 mM", "result": 3.35}, {"measurement": "Fig. 2D activity", "setting": "LOX; 1.11e-5, putrescine 3.3 mM", "result": 6.43}, {"measurement": "Fig. 2D activity", "setting": "LOX; 1.11e-5, putrescine 10 mM", "result": 14.18}, {"measurement": "Fig. 2D activity", "setting": "LOX; 1.11e-5, putrescine 30 mM", "result": 32.4}, {"measurement": "Fig. 2D activity", "setting": "LOX; 1.11e-5, putrescine 90 mM", "result": 57.08}, {"measurement": "Fig. 2D activity", "setting": "LOX; 3.33e-5, putrescine 1.1 mM", "result": -0.5}, {"measurement": "Fig. 2D activity", "setting": "LOX; 3.33e-5, putrescine 3.3 mM", "result": 1.53}, {"measurement": "Fig. 2D activity", "setting": "LOX; 3.33e-5, putrescine 10 mM", "result": 3.65}, {"measurement": "Fig. 2D activity", "setting": "LOX; 3.33e-5, putrescine 30 mM", "result": 9.04}, {"measurement": "Fig. 2D activity", "setting": "LOX; 3.33e-5, putrescine 90 mM", "result": 24.08}, {"measurement": "Fig. 2D activity", "setting": "LOX; 0.0001, putrescine 1.1 mM", "result": -0.9}, {"measurement": "Fig. 2D activity", "setting": "LOX; 0.0001, putrescine 3.3 mM", "result": -0.36}, {"measurement": "Fig. 2D activity", "setting": "LOX; 0.0001, putrescine 10 mM", "result": 0.174}, {"measurement": "Fig. 2D activity", "setting": "LOX; 0.0001, putrescine 30 mM", "result": 1.46}, {"measurement": "Fig. 2D activity", "setting": "LOX; 0.0001, putrescine 90 mM", "result": 4.82}]}
{"smiles": "NC/C=C(\\F)C(F)(F)S(=O)(=O)c1ccccc1", "note": "[PXS-6302]", "values": [{"measurement": "inhibition at 30 µM", "setting": "hERG potassium channel", "result": 29, "unit": "%"}, {"measurement": "inhibition at 30 µM", "setting": "Cyclooxygenase COX-1", "result": 36, "unit": "%"}, {"measurement": "inhibition at 30 µM", "setting": "Phosphodiesterase PDE3A", "result": -4, "unit": "%"}]}
